Each molecule was assayed on Beet Armyworm (Spodoptera exigua) (assay: Bioassay on Beet Armyworm (BAW), 128-well diet tray assay). Settings: Table 3, Assays Results Part 1.
Format: in vivo
Description: Certain molecules disclosed in this document were tested against BAW, CEW and CL using procedures described in the following examples. In the reporting of the results, the “BAW & CEW & CL Rating Table” was used (See Table Section).
Bioassays on BAW (Spodoptera exigua)
Bioassays on BAW were conducted using a 128-well diet tray assay. One to five second instar BAW larvae were placed in each well (3 mL) of the diet tray that had been previously filled with 1 mL of artificial diet to which 50 μg/cm^2 of the test compound (dissolved in 50 μL of 90:10 acetone-water mixture) had been applied (to each of eight wells) and then allowed to dry. Trays were covered with a clear self-adhesive cover, and held at 25° C., 14:10 light-dark for five to seven days. Percent mortality was recorded for the larvae in each well; activity in the eight wells was then averaged. The results are indicated in the tables entitled “Table 3: Assay Results Part 1” and “Table 4: Assay Results Part 2” (See Table Section).

SMILES | BAW Rating
O=C(C1CC1)N(Cc1ccccn1)Cc1ccc(/C=C/C(c2cc(Cl)c(Cl)c(Cl)c2)C(F)(F)F)cc1C(F)(F)F (stereo not drawn) [CC29, (E)-N-(Pyridin-2-ylmethyl)-N-(4-(4,4,4-trifluoro-3-(3,4,5-trichlorophenyl)but-1-enyl)-2-(trifluoromethyl)benzyl)cyclopropanecarboxamide] | A (50-100)
CS(=O)(=O)CCC(=O)NCc1ccc(/C=C/C(c2cc(Cl)c(Cl)c(Cl)c2)C(F)(F)F)cc1Cl (stereo not drawn) [CC30, (E)-N-(2-Chloro-4-(4,4,4-trifluoro-3-(3,4,5-trichlorophenyl)but-1-en-1-yl)benzyl)-3-(methylsulfonyl)propanamide] | A (50-100)
CCNC(=O)NCc1ccc(/C=C/C(c2cc(Cl)cc(Cl)c2)C(F)(F)F)cc1Cl (stereo not drawn) [CC31, (E)-1-(2-Chloro-4-(3-(3,5-dichlorophenyl)-4,4,4-trifluorobut-1-en-1-yl)benzyl)-3-ethylurea] | B (More than 0-Less than 50)
CCNC(=O)NCc1ccc(/C=C/C(c2cc(Cl)c(Cl)c(Cl)c2)C(F)(F)F)cc1C(F)(F)F (stereo not drawn) [CC32] | A (50-100)
CCNC(=O)NCc1ccc(/C=C/C(c2cc(Cl)c(Cl)c(Cl)c2)C(F)(F)F)cc1Br (stereo not drawn) [CC33] | A (50-100)
O=C(NCc1ccc(/C=C/C(c2cc(Cl)c(Cl)c(Cl)c2)C(F)(F)F)cc1Cl)N1CCOCC1 (stereo not drawn) [CC34] | A (50-100)
CN(C)C(=O)NCc1ccc(/C=C/C(c2cc(Cl)c(Cl)c(Cl)c2)C(F)(F)F)cc1Cl (stereo not drawn) [CC36, (E)-3-(2-Chloro-4-(4,4,4-trifluoro-3-(3,4,5-trichlorophenyl)but-1-en-1-yl)benzyl)-1,1-dimethylurea] | A (50-100)
CCNC(=S)NCc1ccc(/C=C/C(c2cc(Cl)c(Cl)c(Cl)c2)C(F)(F)F)cc1Cl (stereo not drawn) [CC37, (E)-1-(2-Chloro-4-(4,4,4-trifluoro-3-(3,4,5-trichlorophenyl)but-1-en-1-yl)benzyl)-3-ethylthiourea] | A (50-100)
C=CCNC(=S)NCc1ccc(/C=C/C(c2cc(Cl)c(Cl)c(Cl)c2)C(F)(F)F)cc1Cl (stereo not drawn) [CC38] | A (50-100)
FC(F)(F)C(/C=C/c1ccc(CNc2ccccn2)c(Cl)c1)c1cc(Cl)c(Cl)c(Cl)c1 (stereo not drawn) [CC43, (E)-N-(2-Chloro-4-(4,4,4-trifluoro-3-(3,4,5-trichlorophenyl)but-1-en-1-yl)benzyl)pyridin-2-amine] | A (50-100)
O=C(CC(F)(F)F)NCc1ncc(/C=C/C(c2cc(Cl)c(Cl)c(Cl)c2)C(F)(F)F)cc1Cl (stereo not drawn) [CC44, (E)-N-((3-Chloro-5-(4,4,4-trifluoro-3-(3,4,5-trichlorophenyl)-but-1-en-1-yl)pyridin-2-yl)methyl)-3,3,3-trifluoropropanamide] | A (50-100)
O=C(NCc1ncc(/C=C/C(c2cc(Cl)c(Cl)c(Cl)c2)C(F)(F)F)cc1Cl)C1CC1 (stereo not drawn) [CC45] | A (50-100)
O=C(NNc1ccc(/C=C/C(c2cc(Cl)c(Cl)c(Cl)c2)C(F)(F)F)cc1)C1CC1 (stereo not drawn) [CC50, (E)-N′-(4-(4,4,4-Trifluoro-3-(3,4,5-trichlorophenyl)but-1-en-1-yl)phenyl)cyclopropanecarbohydrazide] | A (50-100)
O=C(CC(F)(F)F)NNc1ccc(/C=C/C(c2cc(Cl)c(Cl)c(Cl)c2)C(F)(F)F)cc1 (stereo not drawn) [CC51] | A (50-100)
O=C(NOc1ccc(/C=C/C(c2cc(Cl)c(Cl)c(Cl)c2)C(F)(F)F)cc1)C1CC1 (stereo not drawn) [CC52, (E)-N-(4-(4,4,4-Trifluoro-3-(3,4,5-trichlorophenyl)but-1-en-1-yl)phenoxy)cyclopropanecarboxamide] | A (50-100)
O=C(CC(F)(F)F)NCc1ccc(/C=C\C(c2cc(Cl)c(Cl)c(Cl)c2)C(F)(F)F)cc1 (stereo not drawn) [CC54, (Z)-3,3,3-Trifluoro-N-(4-(4,4,4-trifluoro-3-(3,4,5-trichlorophenyl)but-1-en-1-yl)benzyl)propanamide] | A (50-100)
FC(F)(F)C(/C=C/c1ccc(-n2cncn2)cc1)c1cc(Cl)cc(Cl)c1 (stereo not drawn) [DC1, (E)-1-(4-(3-(3,5-Dichlorophenyl)-4,4,4-trifluorobut-1-en-1-yl)phenyl)-1H-1,2,4-triazole] | A (50-100)
FC(F)(F)C(/C=C/c1ccc(-n2cncn2)cc1)c1ccccc1 (stereo not drawn) [DC3] | B (More than 0-Less than 50)

SMILES | BAW Rating
FC(F)(F)C(/C=C/c1ccc(-n2cncn2)cc1)c1ccc(Cl)cc1 (stereo not drawn) [DC4] | A (50-100)
Fc1ccc(C(/C=C/c2ccc(-n3cncn3)cc2)C(F)(F)F)cc1 (stereo not drawn) [DC7] | A (50-100)
Fc1cc(F)cc(C(/C=C/c2ccc(-n3cncn3)cc2)C(F)(F)F)c1 (stereo not drawn) [DC8] | A (50-100)
Cc1cc(C)cc(C(/C=C/c2ccc(-n3cncn3)cc2)C(F)(F)F)c1 (stereo not drawn) [DC11] | A (50-100)
FC(F)(F)C(/C=C/c1ccc(-n2cncn2)cc1)c1ccc(Cl)c(Cl)c1 (stereo not drawn) [DC12] | A (50-100)
FC(F)(F)c1cc(C(/C=C/c2ccc(-n3cncn3)cc2)C(F)(F)F)cc(C(F)(F)F)c1 (stereo not drawn) [DC16] | A (50-100)
COc1c(Cl)cc(C(/C=C/c2ccc(-n3cncn3)cc2)C(F)(F)F)cc1Cl (stereo not drawn) [DC20] | A (50-100)
N#Cc1cc(/C=C/C(c2cc(Cl)cc(C(F)(F)F)c2)C(F)(F)F)ccc1-n1cncn1 (stereo not drawn) [DC33] | A (50-100)
COc1c(Cl)cc(C(/C=C/c2ccc(-n3cncn3)c(C#N)c2)C(F)(F)F)cc1Cl (stereo not drawn) [DC34] | A (50-100)
N#Cc1cc(/C=C/C(c2cc(Cl)c(F)c(Cl)c2)C(F)(F)F)ccc1-n1cncn1 (stereo not drawn) [DC35] | A (50-100)
N#Cc1cc(/C=C/C(c2cc(Cl)cc(Cl)c2)C(F)(F)F)ccc1-n1cnc([N+](=O)[O-])n1 (stereo not drawn) [DC37] | A (50-100)
N#Cc1cc(/C=C/C(c2cc(Cl)cc(Cl)c2)C(F)(F)F)ccc1-n1cnc(N)n1 (stereo not drawn) [DC38] | A (50-100)
CC(=O)Nc1ncn(-c2ccc(/C=C/C(c3cc(Cl)cc(Cl)c3)C(F)(F)F)cc2C#N)n1 (stereo not drawn) [DC39] | A (50-100)
N#Cc1cc(/C=C/C(c2cc(Cl)c(Cl)c(Cl)c2)C(F)(F)F)ccc1-n1cnc([N+](=O)[O-])n1 (stereo not drawn) [DC40, (E)-2-(3-Nitro-1H-1,2,4-triazol-1-yl)-5-(4,4,4-trifluoro-3-(3,4,5-trichlorophenyl)but-1-en-1-yl)benzonitrile] | A (50-100)
N#Cc1cc(/C=C/C(c2cc(Cl)c(Cl)c(Cl)c2)C(F)(F)F)ccc1-n1cnc(N)n1 (stereo not drawn) [DC41, (E)-2-(3-Amino-1H-1,2,4-triazol-1-yl)-5-(4,4,4-trifluoro-3-(3,4,5-trichlorophenyl)but-1-en-1-yl)benzonitrile] | A (50-100)
N#Cc1cc(/C=C/C(c2cc(Cl)c(Cl)c(Cl)c2)C(F)(F)F)ccc1-n1cnc(N(C(=O)C2CC2)C(=O)C2CC2)n1 (stereo not drawn) [DC42, (E)-N-(1-(2-Cyano-4-(4,4,4-trifluoro-3-(3,4,5-trichlorophenyl)but-1-en-1-yl)phenyl)-1H-1,2,4-triazol-3-yl)-N-(cyclopropanecarbonyl)cyclopropanecarboxamide] | A (50-100)
N#Cc1cc(/C=C/C(c2cc(Cl)c(Cl)c(Cl)c2)C(F)(F)F)ccc1-n1cnc(NC(=O)C2CC2)n1 (stereo not drawn) [DC43, (E)-N-(1-(2-Cyano-4-(4,4,4-trifluoro-3-(3,4,5-trichlorophenyl)but-1-en-1-yl)phenyl)-1H-1,2,4-triazol-3-yl)cyclopropanecarboxamide] | A (50-100)
Cc1cc(/C=C/C(c2cc(Cl)cc(Cl)c2)C(F)(F)F)cc(C#N)c1-n1cncn1 (stereo not drawn) [DC44] | A (50-100)
